Assay results reported in PubChem BioAssay (NCI).
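Test compounds were applied to cells in 96-well plates for 48 hours at 5 doses. TGI: concentration producing complete growth inhibition.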

How the values were obtained:
Assay in all cases: DTP human tumour cell line panel, 48 h
HCC-2998 colon = system: HCC-2998 colon
HOP-92 NSCLC = system: HOP-92 NSCLC
HCT-116 colon = system: HCT-116 colon
786-0 renal = system: 786-0 renal
TK-10 renal = system: TK-10 renal
SN12C renal = system: SN12C renal
A498 renal = system: A498 renal
SW-620 colon = system: SW-620 colon
MDA-MB-231 breast = system: MDA-MB-231 breast
SNB-19 CNS = system: SNB-19 CNS
NCI-H226 lung = system: NCI-H226 lung
ACHN renal = system: ACHN renal
MCF7 breast = system: MCF7 breast
SNB-75 CNS = system: SNB-75 CNS
SF-295 CNS = system: SF-295 CNS
NCI/ADR-RES ovarian = system: NCI/ADR-RES ovarian
NCI-H522 lung = system: NCI-H522 lung
IGROV1 ovarian = system: IGROV1 ovarian
OVCAR-4 ovarian = system: OVCAR-4 ovarian
HS 578T breast = system: HS 578T breast
MOLT-4 leukemia = system: MOLT-4 leukemia
LOX IMVI melanoma = system: LOX IMVI melanoma
RXF 393 renal = system: RXF 393 renal
PC-3 prostate = system: PC-3 prostate
UACC-257 melanoma = system: UACC-257 melanoma
BT-549 breast = system: BT-549 breast
CCRF-CEM leukemia = system: CCRF-CEM leukemia
SF-268 CNS = system: SF-268 CNS
OVCAR-5 ovarian = system: OVCAR-5 ovarian
UACC-62 melanoma = system: UACC-62 melanoma
SK-MEL-28 melanoma = system: SK-MEL-28 melanoma
A549 NSCLC = system: A549 NSCLC
HT29 colon = system: HT29 colon
SF-539 CNS = system: SF-539 CNS
HL-60(TB) leukemia = system: HL-60(TB) leukemia
EKVX NSCLC = system: EKVX NSCLC
OVCAR-8 ovarian = system: OVCAR-8 ovarian
HCT-15 colon = system: HCT-15 colon
SK-OV-3 ovarian = system: SK-OV-3 ovarian
U251 CNS = system: U251 CNS
KM12 colon = system: KM12 colon
MALME-3M melanoma = system: MALME-3M melanoma
MDA-N = system: MDA-N
SK-MEL-2 melanoma = system: SK-MEL-2 melanoma
HOP-62 NSCLC = system: HOP-62 NSCLC
NCI-H460 lung = system: NCI-H460 lung
CAKI-1 renal = system: CAKI-1 renal
K-562 leukemia = system: K-562 leukemia
SK-MEL-5 melanoma = system: SK-MEL-5 melanoma
COLO 205 colon = system: COLO 205 colon
M14 melanoma = system: M14 melanoma
RPMI-8226 leukemia = system: RPMI-8226 leukemia
MDA-MB-435 = system: MDA-MB-435
T-47D breast = system: T-47D breast
DU-145 prostate = system: DU-145 prostate
NCI-H23 lung = system: NCI-H23 lung
OVCAR-3 ovarian = system: OVCAR-3 ovarian
UO-31 renal = system: UO-31 renal

Compound: N#Cc1c(-c2ccc(Cl)cc2)c(C#N)c(=O)n(NS(=O)(=O)c2ccccc2)c1O
- TGI (HCC-2998 colon): 35 µM
- TGI (HOP-92 NSCLC): 71.1 µM
- TGI (HCT-116 colon): 33.1 µM
- TGI (786-0 renal): > 100 µM
- TGI (TK-10 renal): > 100 µM
- TGI (SN12C renal): > 100 µM
- TGI (A498 renal): 70.1 µM
- TGI (SW-620 colon): > 100 µM
- TGI (MDA-MB-231 breast): 98.2 µM
- TGI (SNB-19 CNS): > 100 µM
- TGI (NCI-H226 lung): > 100 µM
- TGI (ACHN renal): > 100 µM
- TGI (MCF7 breast): 42.9 µM
- TGI (SNB-75 CNS): > 100 µM
- TGI (SF-295 CNS): > 100 µM
- TGI (NCI/ADR-RES ovarian): 93 µM
- TGI (NCI-H522 lung): > 100 µM
- TGI (IGROV1 ovarian): > 100 µM
- TGI (OVCAR-4 ovarian): > 100 µM
- TGI (HS 578T breast): 63.9 µM
- TGI (MOLT-4 leukemia): 71.2 µM
- TGI (LOX IMVI melanoma): 30.7 µM
- TGI (RXF 393 renal): 69.6 µM
- TGI (PC-3 prostate): 48.8 µM
- TGI (UACC-257 melanoma): > 100 µM
- TGI (BT-549 breast): 32.8 µM
- TGI (CCRF-CEM leukemia): 88.6 µM
- TGI (SF-268 CNS): > 100 µM
- TGI (OVCAR-5 ovarian): > 100 µM
- TGI (UACC-62 melanoma): 29.6 µM
- TGI (SK-MEL-28 melanoma): > 100 µM
- TGI (A549 NSCLC): > 100 µM
- TGI (HT29 colon): > 100 µM
- TGI (SF-539 CNS): 55.6 µM
- TGI (HL-60(TB) leukemia): 41.3 µM
- TGI (EKVX NSCLC): > 100 µM
- TGI (OVCAR-8 ovarian): > 100 µM
- TGI (HCT-15 colon): 62.3 µM
- TGI (SK-OV-3 ovarian): 79 µM
- TGI (U251 CNS): > 100 µM
- TGI (KM12 colon): 77.8 µM
- TGI (MALME-3M melanoma): > 100 µM
- TGI (MDA-N): > 100 µM
- TGI (SK-MEL-2 melanoma): 44 µM
- TGI (HOP-62 NSCLC): > 100 µM
- TGI (NCI-H460 lung): 55 µM
- TGI (CAKI-1 renal): 48 µM
- TGI (K-562 leukemia): > 100 µM
- TGI (SK-MEL-5 melanoma): 32.3 µM
- TGI (COLO 205 colon): > 100 µM
- TGI (M14 melanoma): > 100 µM
- TGI (RPMI-8226 leukemia): 26.2 µM
- TGI (MDA-MB-435): > 100 µM

Compound: C=CCN1CCC(O)(c2cc(C(=O)OCC)[nH]c2-c2cc(C)no2)C1 (configuration not stated)
- TGI (HOP-92 NSCLC): > 100 µM
- TGI (HCT-116 colon): > 100 µM
- TGI (786-0 renal): > 100 µM
- TGI (TK-10 renal): > 100 µM
- TGI (SN12C renal): > 100 µM
- TGI (A498 renal): > 100 µM
- TGI (SW-620 colon): > 100 µM
- TGI (MDA-MB-231 breast): > 100 µM
- TGI (SNB-19 CNS): > 100 µM
- TGI (NCI-H226 lung): > 100 µM
- TGI (ACHN renal): > 100 µM
- TGI (SNB-75 CNS): > 100 µM
- TGI (SF-295 CNS): > 100 µM
- TGI (NCI/ADR-RES ovarian): > 100 µM
- TGI (T-47D breast): > 100 µM
- TGI (NCI-H522 lung): > 100 µM
- TGI (IGROV1 ovarian): > 100 µM
- TGI (OVCAR-4 ovarian): > 100 µM
- TGI (MOLT-4 leukemia): > 100 µM
- TGI (LOX IMVI melanoma): > 100 µM
- TGI (RXF 393 renal): > 100 µM
- TGI (PC-3 prostate): > 100 µM
- TGI (UACC-257 melanoma): > 100 µM
- TGI (BT-549 breast): > 100 µM
- TGI (CCRF-CEM leukemia): > 100 µM
- TGI (SF-268 CNS): > 100 µM
- TGI (OVCAR-5 ovarian): > 100 µM
- TGI (UACC-62 melanoma): > 100 µM
- TGI (SK-MEL-28 melanoma): > 100 µM
- TGI (A549 NSCLC): > 100 µM
- TGI (HT29 colon): > 100 µM
- TGI (SF-539 CNS): > 100 µM
- TGI (HL-60(TB) leukemia): > 100 µM
- TGI (EKVX NSCLC): > 100 µM
- TGI (OVCAR-8 ovarian): > 100 µM
- TGI (HCT-15 colon): > 100 µM
- TGI (SK-OV-3 ovarian): > 100 µM
- TGI (DU-145 prostate): > 100 µM
- TGI (U251 CNS): > 100 µM
- TGI (NCI-H23 lung): > 100 µM
- TGI (KM12 colon): > 100 µM
- TGI (MALME-3M melanoma): > 100 µM
- TGI (MDA-N): > 100 µM
- TGI (SK-MEL-2 melanoma): > 100 µM
- TGI (NCI-H460 lung): > 100 µM
- TGI (CAKI-1 renal): > 100 µM
- TGI (K-562 leukemia): > 100 µM
- TGI (SK-MEL-5 melanoma): > 100 µM
- TGI (OVCAR-3 ovarian): > 100 µM
- TGI (COLO 205 colon): > 100 µM
- TGI (M14 melanoma): > 100 µM
- TGI (RPMI-8226 leukemia): > 100 µM
- TGI (MDA-MB-435): > 100 µM
- TGI (UO-31 renal): > 100 µM
